Source: patent US11000033B2, “Ketone or oxime compound, and herbicide” (NISSAN CHEMICAL CORPORATION, priority 2014, dated 2021)

How the values were obtained:
Format in all cases: in vivo
[1] = tested on: Echinochloa oryzacola Vasing.; assay: Test Example 2: herbicidal activity, application during weed generation in submerged conditions (symbol A); settings: Table 23; application herbicide amount 320 g/ha; grade 0-5 by criteria of Test Example 1
Method in brief: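 Scoring of herbicidal effect took place 3 weeks after treatment, using the criteria of the earlier test. Treatment was water-surface application of diluted emulsifiable compound at a set dose. Plants were at one- to two-leaf stage in submerged alluvial soil (4 cm depth), greenhouse 25-30° C.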

[2] = tested on: Digitaria ciliaris; assay: Test Example 4: herbicidal effect by soil treatment (symbol F); settings: application herbicide amount 320 g/ha
Method in brief: (§1)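 Seeds were sown in sterilized diluvial soil, covered with about 1.5 cm of soil, and the soil surface was sprayed with a water-diluted emulsion of the compound at a predetermined rate. Plants grew in a greenhouse at 25° C. to 30° C.; effects were scored visually 3 weeks after application.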

[3] = tested on: Avena fatua; assay: Test Example 4: herbicidal effect by soil treatment (symbol I); settings: application herbicide amount 320 g/ha
Method in brief: as §1

[4] = tested on: soybean; assay: Test Example 4: effect on crop by soil treatment (symbol d); settings: application herbicide amount 320 g/ha
Method in brief: (§2)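 Soil-treatment setup: crop and weed seeds were spot-sown into sterilized diluvial soil, then buried beneath approximately 1.5 cm of it, and the boxes were housed in a 25–30° C. greenhouse.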

[5] = tested on: rice; assay: Test Example 4: effect on crop by soil treatment (symbol b); settings: application herbicide amount 320 g/ha
Method in brief: as §2

[6] = tested on: wheat; assay: Test Example 4: effect on crop by soil treatment (symbol e); settings: application herbicide amount 320 g/ha
Method in brief: as §2

[7] = tested on: rapeseed; assay: Test Example 4: effect on crop by soil treatment (symbol g); settings: application herbicide amount 320 g/ha
Method in brief: as §2

[8] = tested on: Stellaria media; assay: Test Example 5: herbicidal effect by foliage application, plastic box (symbol P); settings: 320 g/ha, 3 weeks after application
Method in brief: (§3)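 Post-emergence spray; diluvial soil (sterilized), ~1.5 cm seed cover; greenhouse 25–30° C; 14-day-old plants; water-diluted emulsion at predetermined dose; visual score at 3 wk post-treatment.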

[9] = tested on: Galium spurium; assay: Test Example 5: herbicidal effect by foliage application, plastic box (symbol Q); settings: 320 g/ha, 3 weeks after application
Method in brief: as §3

[10] = tested on: corn; assay: Test Example 5: effect on crop by foliage application, plastic box (symbol c); settings: 320 g/ha, 3 weeks after application
Method in brief: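 Greenhouse test at 25° C. to 30° C. Seeds of crops and weeds were spot-sown in boxes of sterilized diluvial soil under roughly 1.5 cm soil cover, then grown for foliage treatment.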

[11] = tested on: transplanted rice plant; assay: Test Example 1: effect on crop, application before weed generation in submerged conditions (symbol a); settings: application herbicide amount 320 g/ha
Method in brief: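 Rice at 2.5 leaf stage transplanted into submerged soil (4 cm depth) sown with three weed species; herbicide applied before weed emergence.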

[12] = tested on: Cyperus difformis; assay: Test Example 3: herbicidal effect by foliage application, Wagner pot (symbol E); settings: application herbicide amount 320 g/ha
Method in brief: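 Foliar spray of a water-diluted emulsion at a predetermined herbicide amount, applied to 14-day-old plants. Seedlings were raised in flooded alluvial soil (0.1–0.5 cm water) at 25–30 °C in a greenhouse. Injury was rated after 3 weeks against fixed criteria.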

SMILES	Herbicidal effect grade, A: Echinochloa oryzacola Vasing. [1]	Herbicidal effect grade, F: Digitaria ciliaris [2]	Herbicidal effect grade, I: Avena fatua [3]	Effect on crop grade, d: soybean [4]	Effect on crop grade, b: directly sowed rice plant [5]	Effect on crop grade, e: wheat [6]	Effect on crop grade, g: rapeseed [7]	P: Stellaria media, herbicidal effect grade [8]	Q: Galium spurium, herbicidal effect grade [9]	c: corn, effect on crop grade [10]	Effect grade on crop, a: transplanted rice plant [11]	herbicidal effect on E, grade 0-5 [12]	F (Digitaria ciliaris) herbicidal effect grade [2]	I (Avena fatua) herbicidal effect grade [3]	d (soybean) effect on crop grade [4]	b (directly sowed rice plant) effect on crop grade [5]	e (wheat) effect on crop grade [6]	g (rapeseed) effect on crop grade [7]
CC(CC1CC(O)=C(c2c(C)cc(Br)cc2C)C1=O)=NOCC(=O)N(C)C (mixture of isomers) [9-029]	0 (Herbicidal ratio of 5% or lower (almost no effect))	3 (Herbicidal ratio of 40% or higher and lower than 70%)	0 (Herbicidal ratio of 5% or lower (almost no effect))	0 (Herbicidal ratio of 5% or lower (almost no effect))	1 (Herbicidal ratio of 5% or higher and lower than 20%)	0 (Herbicidal ratio of 5% or lower (almost no effect))	0 (Herbicidal ratio of 5% or lower (almost no effect))	0 (Herbicidal ratio of 5% or lower (almost no effect))	0 (Herbicidal ratio of 5% or lower (almost no effect))	4 (Herbicidal ratio of 70% or higher and lower than 90%)								
CON=C(C)CC1CC(OC)=C(c2c(C)cc(C)cc2C)C1=O (stereo not shown) [1-001, 2-mesityl-3-methoxy-5-{2-(methoxyimino)propyl}cyclopent-2-enone]	0 (Herbicidal ratio of 5% or lower (almost no effect))							0 (Herbicidal ratio of 5% or lower (almost no effect))	0 (Herbicidal ratio of 5% or lower (almost no effect))	0 (Herbicidal ratio of 5% or lower (almost no effect))	0 (Herbicidal ratio of 5% or lower (almost no effect))	0 (Herbicidal ratio of 5% or lower (almost no effect))	0 (Herbicidal ratio of 5% or lower (almost no effect))	0 (Herbicidal ratio of 5% or lower (almost no effect))	0 (Herbicidal ratio of 5% or lower (almost no effect))	0 (Herbicidal ratio of 5% or lower (almost no effect))	0 (Herbicidal ratio of 5% or lower (almost no effect))	0 (Herbicidal ratio of 5% or lower (almost no effect))
CON=C(C)CC1CC(O)=C(c2c(C)cc(C)cc2C)C1=O (stereo not shown) [1-002, 3-hydroxy-2-mesityl-5-{2-(methoxyimino)propyl}cyclopent-2-enone]	5 (Herbicidal ratio of 90% or more (almost completely withered))							4 (Herbicidal ratio of 70% or higher and lower than 90%)	4 (Herbicidal ratio of 70% or higher and lower than 90%)	5 (Herbicidal ratio of 90% or more (almost completely withered))	5 (Herbicidal ratio of 90% or more (almost completely withered))	5 (Herbicidal ratio of 90% or more (almost completely withered))	5 (Herbicidal ratio of 90% or more (almost completely withered))	5 (Herbicidal ratio of 90% or more (almost completely withered))	0 (Herbicidal ratio of 5% or lower (almost no effect))	5 (Herbicidal ratio of 90% or more (almost completely withered))	4 (Herbicidal ratio of 70% or higher and lower than 90%)	5 (Herbicidal ratio of 90% or more (almost completely withered))
CON=C(C)CC1CC(OC(=O)C2(C)CC2(Cl)Cl)=C(c2c(C)cc(C)cc2C)C1=O (stereo not shown) [1-036]	5 (Herbicidal ratio of 90% or more (almost completely withered))								0 (Herbicidal ratio of 5% or lower (almost no effect))	1 (Herbicidal ratio of 5% or higher and lower than 20%)	5 (Herbicidal ratio of 90% or more (almost completely withered))	5 (Herbicidal ratio of 90% or more (almost completely withered))	5 (Herbicidal ratio of 90% or more (almost completely withered))	5 (Herbicidal ratio of 90% or more (almost completely withered))	0 (Herbicidal ratio of 5% or lower (almost no effect))	5 (Herbicidal ratio of 90% or more (almost completely withered))	3 (Herbicidal ratio of 40% or higher and lower than 70%)	5 (Herbicidal ratio of 90% or more (almost completely withered))
COCCOC1=C(c2c(C)cc(C)cc2C)C(=O)C(CC(C)=NOC)C1 (stereo not shown) [1-037]	0 (Herbicidal ratio of 5% or lower (almost no effect))								0 (Herbicidal ratio of 5% or lower (almost no effect))	0 (Herbicidal ratio of 5% or lower (almost no effect))	0 (Herbicidal ratio of 5% or lower (almost no effect))	0 (Herbicidal ratio of 5% or lower (almost no effect))	0 (Herbicidal ratio of 5% or lower (almost no effect))	0 (Herbicidal ratio of 5% or lower (almost no effect))	0 (Herbicidal ratio of 5% or lower (almost no effect))	0 (Herbicidal ratio of 5% or lower (almost no effect))	0 (Herbicidal ratio of 5% or lower (almost no effect))	0 (Herbicidal ratio of 5% or lower (almost no effect))
CON=C(CC1CC(O)=C(c2c(C)cc(C)cc2C)C1=O)c1ccccc1 (stereo not shown) [1-047]	2 (Herbicidal ratio of 20% or higher and lower than 40%)							0 (Herbicidal ratio of 5% or lower (almost no effect))	0 (Herbicidal ratio of 5% or lower (almost no effect))	0 (Herbicidal ratio of 5% or lower (almost no effect))	1 (Herbicidal ratio of 5% or higher and lower than 20%)	0 (Herbicidal ratio of 5% or lower (almost no effect))	3 (Herbicidal ratio of 40% or higher and lower than 70%)	0 (Herbicidal ratio of 5% or lower (almost no effect))	0 (Herbicidal ratio of 5% or lower (almost no effect))	4 (Herbicidal ratio of 70% or higher and lower than 90%)	0 (Herbicidal ratio of 5% or lower (almost no effect))	
